Read-outs that look alike come from different tables or passages of the source.
Assays:
UGT1A8 = target: T1, UGT1A8 (Homo sapiens, UniProt Q9HAW9); details: for residual activity 1A8: recombinant human UGT, mean of triplicate
T1 sequence (Q9HAW9 26-530): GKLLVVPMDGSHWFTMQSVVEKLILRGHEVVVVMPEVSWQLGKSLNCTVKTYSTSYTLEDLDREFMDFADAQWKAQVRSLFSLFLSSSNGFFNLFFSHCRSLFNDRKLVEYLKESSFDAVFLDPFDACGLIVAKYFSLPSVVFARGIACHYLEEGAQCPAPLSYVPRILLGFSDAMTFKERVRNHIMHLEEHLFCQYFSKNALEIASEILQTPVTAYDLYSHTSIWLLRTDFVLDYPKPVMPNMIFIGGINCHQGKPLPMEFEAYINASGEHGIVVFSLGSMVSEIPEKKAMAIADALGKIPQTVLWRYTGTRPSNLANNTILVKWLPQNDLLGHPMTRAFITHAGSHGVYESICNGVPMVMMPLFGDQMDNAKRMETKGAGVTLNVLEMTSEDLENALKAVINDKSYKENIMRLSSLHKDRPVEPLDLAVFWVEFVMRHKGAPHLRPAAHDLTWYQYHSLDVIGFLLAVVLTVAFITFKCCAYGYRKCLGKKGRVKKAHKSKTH

UGT1A7 = target: T2, UGT1A7 (Homo sapiens, UniProt Q9HAW7); assay: UGT1A7 supersomes-catalyzed 4-MU glucuronidation inhibition; details: recombinant human UGT, mean of triplicate
T2 sequence (Q9HAW7 26-530): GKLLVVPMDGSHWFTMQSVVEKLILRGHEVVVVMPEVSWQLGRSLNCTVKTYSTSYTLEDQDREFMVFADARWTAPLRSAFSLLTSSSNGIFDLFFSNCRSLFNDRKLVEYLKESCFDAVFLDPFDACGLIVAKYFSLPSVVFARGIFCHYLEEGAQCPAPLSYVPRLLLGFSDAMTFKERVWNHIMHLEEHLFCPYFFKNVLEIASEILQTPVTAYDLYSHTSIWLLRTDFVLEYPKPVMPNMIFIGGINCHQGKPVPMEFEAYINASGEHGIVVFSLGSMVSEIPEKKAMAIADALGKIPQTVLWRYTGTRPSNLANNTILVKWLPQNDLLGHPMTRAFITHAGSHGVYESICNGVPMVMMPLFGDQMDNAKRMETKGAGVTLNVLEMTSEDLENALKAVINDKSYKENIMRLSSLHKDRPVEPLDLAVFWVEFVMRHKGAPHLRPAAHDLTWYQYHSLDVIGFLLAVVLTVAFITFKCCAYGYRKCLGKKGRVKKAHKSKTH

UGT isoforms = assay: Initial screening towards all UGT isoforms; assay type: biochemical, human; details: about 50 μM; isoforms not given
UGT1A9 = target: T3, UGT1A9 (Homo sapiens, UniProt O60656); assay: UGT1A9 supersomes-catalyzed 4-MU glucuronidation inhibition; details: recombinant human UGT, mean of triplicate
T3 sequence (O60656 26-530): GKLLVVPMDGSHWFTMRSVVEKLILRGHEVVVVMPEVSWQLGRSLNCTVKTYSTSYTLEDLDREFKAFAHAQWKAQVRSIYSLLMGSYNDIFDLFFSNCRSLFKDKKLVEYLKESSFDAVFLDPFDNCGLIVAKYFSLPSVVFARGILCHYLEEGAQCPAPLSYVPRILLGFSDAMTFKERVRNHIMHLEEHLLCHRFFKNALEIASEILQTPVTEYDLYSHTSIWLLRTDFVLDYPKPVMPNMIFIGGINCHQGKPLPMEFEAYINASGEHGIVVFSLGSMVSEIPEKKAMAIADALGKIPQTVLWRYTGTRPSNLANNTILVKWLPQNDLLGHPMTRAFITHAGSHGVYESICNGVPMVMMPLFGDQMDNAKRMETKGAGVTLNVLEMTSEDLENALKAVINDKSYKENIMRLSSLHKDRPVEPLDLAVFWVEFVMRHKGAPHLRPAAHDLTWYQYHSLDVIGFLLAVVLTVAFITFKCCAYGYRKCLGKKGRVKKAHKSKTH

Row | SMILES | residual activity 1A8 (UGT1A8; 50 μM LPC components) [%] | residual activity 1A7 (UGT1A7; 50 μM LPC components) [%] | inhibition of activity of UGT isoforms (UGT isoforms) | residual activity 1A9 (UGT1A9; 50 μM LPC components) [%] | inhibition kinetic type towards UGT1A8 (UGT1A8; Dixon and Lineweaver-Burk plots, 4-MU glucuronidation) | residual activity 1A8 (UGT1A8; 50 μM PC components) [%] | residual activity 1A7 (UGT1A7; 50 μM PC components) [%] | residual activity 1A9 (UGT1A9; 50 μM PC components) [%]
1 | CCCCCCCCCCCCCCCCC(=O)OC[C@@H](O)COP(=O)([O-])OCC[N+](C)(C)C [LPC 17:0] | 2.2 | 164.3 | more than 90% | 87.5 | – | – | – | –
2 | CCCCCCCCCCCCCCCCCC(=O)OC[C@@H](O)COP(=O)([O-])OCC[N+](C)(C)C [LPC 18:0] | 1.2 | 133.4 | more than 90% | 64.4 | competitive inhibition | – | – | –
3 | CCCCCCCCCCCCCCC(=O)OC[C@@H](O)COP(=O)([O-])OCC[N+](C)(C)C [LPC 15:0] | 1.6 | 156.2 | more than 90% | 82.8 | – | – | – | –
4 | CC/C=C\C/C=C\C/C=C\C/C=C\C/C=C\C/C=C\CCC(=O)O[C@H](COC(=O)CCCCCCCCCCCCCCCCC)COP(=O)([O-])OCC[N+](C)(C)C [PC 18:0, 22:6, 1-stearoyl-2-docosahexaenoyl-sn-glycero-3-phosphocholine] | – | – | – | – | – | 116.1 | 167.9 | 94.4

Source: paper PMC6631349 (Xenobiotica; the fate of foreign compounds in biological …, 2014)
